# Measured values: US11241434B2, “Compositions and methods for improving cognition in a subject” (Yale University, priority 2013, dated 2022)
# How the values were obtained:
# [1] = Phase Ib study, CSF and plasma saracatinib levels (LC/MS/MS); format: in vivo, human; conditions: for estimated human brain concentration: using ratio of CSF:Brain in mouse; for trough CSF / free concentration of saracatinib in plasma / increase in CSF level: human; for free concentration of saracatinib in plasma: from trough CSF levels and FIG. 8 correlation
# Method: Each point is from a different individual. The different dose groups are illustrated with different colors.
# Each point represents trough CSF saracatinib level from a different human subject for the left three columns. The mouse trough CSF values are derived from brain levels at the 5 mg/kg/d dose that rescued memory deficits in FIGS. 3-5. Bars represent mean+sem.
# Plasma samples are analyzed using solid-phase extraction followed by HPLCMS/MS. […] Calibration, quality control (QC) or blank plasma samples (200 μL) are pipetted into a standard 96-well plate. The appropriate internal standard (20 μL) is added to all samples (except the double blank to which 20 μL of methanol is added). 2% ammonium solution (1000 μL) is added to all wells and mixed. Solid-phase extraction is performed using Oasis HLB 30 mg 1 mL 96-well plates. The samples are conditioned with 1 mL methanol then 1 mL 2% ammonium solution. A 1 mL sample is loaded, washed with 1 mL 25:75, v:v methanol:water and eluted with 0.8 mL methanol. The samples are dried under oxygen-free nitrogen at 35° C. The dry residues are reconstituted in 200 μL of mobile phase, vortex mixed and transferred to 96-well plates. The vials are loaded onto HPLC-MS/MS and injected onto the reversed phase HPLC system. Calibration samples are prepared and analyzed in duplicate at LLOQ (lower limit of quantification) and ULOQ (upper limit of quantitation) and singly at all other levels. Independently prepared QC samples covering the calibration range are analyzed in duplicate and in triplicate at the dilution QC level. Plasma concentration data are quantified using an HPLC-MS/MS method and analyzed by standard methods using WinNonLin version 4.1 (Pharsight Corporation, Mountain View, Calif.).
# Subjects were enrolled in three cohorts of 8 subjects each.
# In certain embodiments, obtaining the scans worked as a pilot to the collection of brain metabolism data for the Phase 2a trial. In addition, saracatinib levels were measured in this study using a GLP-validated LC/MS/MS assay. […] CSF levels are about a third of plasma free drug levels.
# [2] = test system: mice with closed head injury (CHI) and chronic variable stress (CVS); assay: Immunohistochemistry of cerebral cortex after head injury plus stress; format: in vivo, mouse; conditions: subacute TBI/Stress mice
# From the text: FIGS. 16A-16F illustrate the finding that AZD0530 treatment prevents phospho-Tau accumulation after head injury plus stress. […] Boxed area is shown at higher magnification inset. Scale bar, m. FIG. 16B: PHF-1 IHC quantification using ImageJ software measuring total stained area, yielded significant differences amongst the three groups. Data are mean±SEM. n=5/group, each dot is one mouse. One way ANOVA: F(2,12)=9.967, p=0.0028, Tukey's multiple comparison test: SV vs IV: p=0.0077, IV vs IA: p=0.0046. […] Scale bar, 20 μm. […] Data are mean±SEM. n=5/group, each dot is one mouse. […] Scale bar, 20 μm. […] Data are mean±SEM. n=5/group, each dot is one mouse.
# Immunohistochemistry was performed as previously described (Kaufman et al., 2015, Ann Neurol 77:953-971) with slight modifications. Forty m coronal sections of the right hemisphere were cut with a Leica VT1000S Vibratome. Antigen retrieval was performed on the forty m free-floating sections by incubating three slices from each mouse in 1× Reveal decloaker buffer (Biocare Medical) in 24-well-plates for 10 minutes at 90° C. in an oven and then cooled down at room temperature for 10 minutes. The antigen retrieval step was done for PHF1, AT8, and GFAP stainings. Sections were permeabilized with 0.1% Triton X-100 at room temperature for 5 minutes for PHF1 and SV2A staining and for 30 minutes for CD68/Ibal, AT8, and GFAP. All sections were blocked with 10% donkey, horse, or goat serum in PBS for one hour at room temperature. The sections were then incubated in primary antibody in 4% donkey, horse, or goat serum in PBS overnight at room temperature. For SV2A and PHF1 stainings, primary antibodies were incubated at 4° C. rather than room temperature. […]
# For imaging and analysis of sections from the transgenic Tauopathy studies, Nikon Eclipse Ti Spinning Disc Confocal Microscope was used with a 40×1.3 NA oil-immersion lens in Cargille immersion oil. […] The dentate gyrus, CA1, and CA3 of mice were imaged and the percent positive area for each staining was analyzed with a macro in ImageJ or a pipeline in CellProfiler. […]
# [3] = test system: APPswe/PS1ΔE9 transgenic mice; assay: Morris water maze in AD transgenic mice
# Method: Spatial learning is plotted as latency to find a hidden platform in a Morris water maze at age 11-12 months. […] Mean±SEM for the indicated numbers of mice per genotype/treatment group.
# Memory performance during a 60 sec probe trial, 24 hr after learning, where time spent in the target quadrant was measured. Random chance is 15 sec. Mean±SEM for n=9-14 in each group.
# The dosing was on a twice a day schedule by oral gavage and control groups received vehicle. The identity of the active versus vehicle groups and the transgene status was unknown to the researchers handling the mice and collecting the behavioral data. […] The data from the two cohorts were pooled. Different tests were performed at 1-3 weeks (early) or 4-6 weeks (late) time points. Mice were tested in the Morris water maze at both ages, and also in Novel Object Recognition tests at the later time points. After memory testing was complete, the animals were sacrificed without ceasing their drug regimen for histological analysis.
# After the learning trials, the mice were tested the subsequent day in a memory test, the 60 second probe trial with the hidden platform removed (FIG. 4). Random chance results in 15 sec occupancy in each quadrant.
compound,measurement,setting,value
"CN1CCN(CCOc2cc(OC3CCOCC3)c3c(Nc4c(Cl)ccc5c4OCO5)ncnc3c2)CC1 [saracatinib, N-(5-chloro-benzo[d][1,3]dioxol-4-yl)-7-(2-(4-methylpiperazin-1-yl)ethoxy)-5-(tetrahydro-2H-pyran-4-yloxy)quinazolin-4-amine]",estimated human brain concentration,[1]; 50 mg saracatinib free base,3 to 7 nM
same,estimated human brain concentration,[1]; 100 mg saracatinib free base,7 to 27 nM
same,estimated human brain concentration,[1]; 125 mg saracatinib free base,8 to 46 nM
same,trough CSF,[1]; 50 mg saracatinib free base daily,0.9 to 2.2 nM
same,free concentration of saracatinib in plasma,[1]; 50 mg,2.6 to 6.5 nM
same,trough CSF,[1]; 100 mg saracatinib free base daily,2.1 to 8.3 nM
same,free concentration of saracatinib in plasma,[1]; 100 mg,6.2 to 24.4 nM
same,trough CSF,[1]; 125 mg saracatinib free base daily,2.5 to 14.0 nM
same,free concentration of saracatinib in plasma,[1]; 125 mg,7.4 to 41.2 nM
same,increase in CSF level,[1]; from 50 to 100 mg,three-fold
same,increase in CSF level,[1]; from 100 to 125 mg,two-fold
same,PHF-1 immunoreactivity area in cerebral cortex,[2]; 0.5-1.0 mm medial to injury site,dramatically reduced
same,GFAP IHC % area,[2]; three groups,did not result in groups differences
same,total Tau IHC mean intensity,[2]; three groups,did not show significant differences
same,latency to hidden platform (learning trials),"[3]; APPswe/PS1ΔE9 mice, 5 mg/kg/d b.i.d. oral gavage, 4-5 weeks",eliminated the transgenic deficit
same,"probe trial, preference for target quadrant","[3]; APPswe/PS1ΔE9 mice, 5 mg/kg/d, 5 weeks",same strong preference for the target quadrant as did WT mice
same,learning and memory tests,[3]; shorter treatment duration or lesser doses,did not have significant effects
same,"probe trial, time in target quadrant","[3]; wild type mice with or without 5 weeks saracatinib, 60 second trial, chance 15 sec",~30 s
same,latency to hidden platform (learning trials),"[3]; wild type mice, 5 mg/kg/d",not altered
